Data taken from PubChem BioAssay AID2060487 (Molecular Pharmacology Branch, DTP, NCI, 2025).

System: 997537-175-T-J1-PDC complex spheroid viability
Assay: Anticancer human tumor 997537-175-T-J1-PDC patient-derived colon adenocarcinoma cell line growth inhibition [GQUAD]
Conditions: for IC50: curve of first compound; for viability, T/C: stronger effect = lower value
Method in brief: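 Multi-cell-type spheroids of tumor cells with HUVEC and mesenchymal stem cells, treated with drug combinations. Concentrations descend in half-log steps from near clinical Cmax, or from 10 microM where Cmax is unknown; viability read-out.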

[1] = second compound 0.0316 µM, first compound 0.0316 µM
[2] = second compound 0.0316 µM, first compound 0.1 µM
[3] = second compound 0.0316 µM, first compound 0.316 µM
[4] = second compound 0.0316 µM, first compound 1 µM
[5] = second compound 0.0316 µM, first compound 3.16 µM
[6] = second compound 0.0316 µM, first compound 10 µM
[7] = second compound 0.1 µM, first compound 0.0316 µM
[8] = second compound 0.1 µM, first compound 0.1 µM
[9] = second compound 0.1 µM, first compound 0.316 µM
[10] = second compound 0.1 µM, first compound 1 µM
[11] = second compound 0.1 µM, first compound 3.16 µM
[12] = second compound 0.1 µM, first compound 10 µM
[13] = second compound 0.316 µM, first compound 0.0316 µM
[14] = second compound 0.316 µM, first compound 0.1 µM
[15] = second compound 0.316 µM, first compound 0.316 µM
[16] = second compound 0.316 µM, first compound 1 µM
[17] = second compound 0.316 µM, first compound 3.16 µM
[18] = second compound 0.316 µM, first compound 10 µM
[19] = second compound 1 µM, first compound 0.0316 µM
[20] = second compound 1 µM, first compound 0.1 µM
[21] = second compound 1 µM, first compound 0.316 µM
[22] = second compound 1 µM, first compound 1 µM
[23] = second compound 1 µM, first compound 3.16 µM
[24] = second compound 1 µM, first compound 10 µM
[25] = second compound 3.16 µM, first compound 0.0316 µM
[26] = second compound 3.16 µM, first compound 0.1 µM
[27] = second compound 3.16 µM, first compound 0.316 µM
[28] = second compound 3.16 µM, first compound 1 µM
[29] = second compound 3.16 µM, first compound 3.16 µM
[30] = second compound 3.16 µM, first compound 10 µM
[31] = second compound 10 µM, first compound 0.0316 µM
[32] = second compound 10 µM, first compound 0.1 µM
[33] = second compound 10 µM, first compound 0.316 µM
[34] = second compound 10 µM, first compound 1 µM
[35] = second compound 10 µM, first compound 3.16 µM
[36] = second compound 10 µM, first compound 10 µM
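Also: spheroids exposed to the agents for 7 days.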
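For viability, T/C in this document: 100% = DMSO vehicle control viability.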

CC1COCCN1c1cc(C2(S(C)(=N)=O)CC2)nc(-c2ccnc3[nH]ccc23)n1 (centres undefined) + CN(C)c1ccc(Nc2c3ccc(NC(=O)CCN4CCCC4)cc3nc3cc(NC(=O)CCN4CCCC4)ccc23)cc1
IC50 (second compound 0.0316 µM): 8.42 µM
IC50 (second compound 0.1 µM): > 10 µM
IC50 (second compound 0.316 µM): > 10 µM
IC50 (second compound 1 µM): > 10 µM
IC50 (second compound 3.16 µM): > 10 µM
IC50 (second compound 10 µM): > 10 µM
viability, T/C [1]: 93.6%
viability, T/C [2]: 82.9%
viability, T/C [3]: 74.4%
viability, T/C [4]: 84.5%
viability, T/C [5]: 56%
viability, T/C [6]: 49%
viability, T/C [7]: 82.3%
viability, T/C [8]: 80%
viability, T/C [9]: 75.1%
viability, T/C [10]: 59.5%
viability, T/C [11]: 48.6%
viability, T/C [12]: 81.9%
viability, T/C [13]: 98.7%
viability, T/C [14]: 66.3%
viability, T/C [15]: 79.2%
viability, T/C [16]: 76%
viability, T/C [17]: 65%
viability, T/C [18]: 76%
viability, T/C [19]: 90%
viability, T/C [20]: 67.4%
viability, T/C [21]: 87.8%
viability, T/C [22]: 75.8%
viability, T/C [23]: 70.9%
viability, T/C [24]: 70.5%
viability, T/C [25]: 70.2%
viability, T/C [26]: 93%
viability, T/C [27]: 86.7%
viability, T/C [28]: 82.8%
viability, T/C [29]: 73.4%
viability, T/C [30]: 70.6%
viability, T/C [31]: 77%
viability, T/C [32]: 95.7%
viability, T/C [33]: 94.5%
viability, T/C [34]: 88.9%
viability, T/C [35]: 55.5%
viability, T/C [36]: 77%

O=C(NO)c1cnc(N2CCN(S(=O)(=O)c3ccc4ccccc4c3)CC2)nc1 + CN(C)c1ccc(Nc2c3ccc(NC(=O)CCN4CCCC4)cc3nc3cc(NC(=O)CCN4CCCC4)ccc23)cc1
IC50 (second compound 0.0316 µM): 2.41 µM
IC50 (second compound 0.1 µM): 1.44 µM
IC50 (second compound 0.316 µM): 2.04 µM
IC50 (second compound 1 µM): 1.53 µM
IC50 (second compound 3.16 µM): 1.61 µM
IC50 (second compound 10 µM): 2.12 µM
viability, T/C [1]: 96%
viability, T/C [2]: 88.2%
viability, T/C [3]: 105%
viability, T/C [4]: 76.5%
viability, T/C [5]: 41.6%
viability, T/C [6]: 0.32%
viability, T/C [7]: 112%
viability, T/C [8]: 90.9%
viability, T/C [9]: 91%
viability, T/C [10]: 66.8%
viability, T/C [11]: 18%
viability, T/C [12]: 0.22%
viability, T/C [13]: 94.3%
viability, T/C [14]: 97.8%
viability, T/C [15]: 82.1%
viability, T/C [16]: 82.4%
viability, T/C [17]: 30.8%
viability, T/C [18]: 0.23%
viability, T/C [19]: 69.8%
viability, T/C [20]: 86.4%
viability, T/C [21]: 98.9%
viability, T/C [22]: 77.8%
viability, T/C [23]: 3.02%
viability, T/C [24]: 0.59%
viability, T/C [25]: 63.6%
viability, T/C [26]: 105%
viability, T/C [27]: 105%
viability, T/C [28]: 84.1%
viability, T/C [29]: 1.75%
viability, T/C [30]: 0.47%
viability, T/C [31]: 83.4%
viability, T/C [32]: 90%
viability, T/C [33]: 95.6%
viability, T/C [34]: 79%
viability, T/C [35]: 34.1%
viability, T/C [36]: 0.44%
